Data taken from paper PMC6968633, “Synthesis, antibacterial and anticancer activity, and docking study of aminoguanidines containing an alkynyl moiety” (Journal of Enzyme Inhibition and Medicinal Chemistry, 2019).
In brackets after ≈: the same amount, converted by molar mass. Where two headings read alike, the source gives them in different places.

Legend:
[1] = system: Staphyiococcus aureus CMCC 25923; test: Antibacterial MIC, serial dilution; format: cell-based, Staphylococcus aureus; conditions: S. aureus CMCC 25923, 24 h, 37 °C
Experimental: (§1) Test bacteria were grown to mid-log phase in Mueller–Hinton broth (MHB) or Tryptone Soya Broth (TSB) and diluted 1000-fold in the same medium. Bacteria (10^5 CFU/mL) were inoculated into MHB or TSB and dispensed at 0.2 ml/well into a 96-well microtiter plate. As positive controls, gatifloxacin, moxifloxacin, norfloxacin, oxacillin, and penicillin were used. […] Bacterial growth was determined by measuring the absorption at 630 nm using a microplate reader. All experiments were carried out three times.
(§2) The evaluation of antibacterial activity of all compounds (3a–3j and 6a–6k) was performed by a serial dilution method to determine the MIC against a panel of pathogens comprising five Gram-positive strains (S. aureus (CMCC(B) 26003 and CMCC 25923), Streptococcus mutans BNCC 336931, Enterococcus faecalis CMCC 29212, and Bacillus subtilis CMCC 63501), four Gram-negative strains (E. coli (CMCC 25922 and CMCC 44568) and P. aeruginosa (CMCC 27853 and CMCC 10104)), as well as three methicillin-resistant clinical isolates (S. aureus ATCC 43300 and ATCC 33591, P. aeruginosa ATCC BAA-2111). The results are described in Tables 1 and 2. Gatifloxacin, moxifloxacin, norfloxacin, oxacillin, and penicillin were used as positive controls.

[2] = system: Bacillus subtilis CMCC 63501; test: Antibacterial MIC, serial dilution; format: cell-based; conditions: B. subtilis CMCC 63501, 24 h, 37 °C
Experimental: as §1, §2

[3] = system: Enterococcus faecalis CMCC 29212; test: Antibacterial MIC, serial dilution; format: cell-based; conditions: E. faecalis CMCC 29212, 24 h, 37 °C
Experimental: as §1, §2

[4] = system: Escherichia coli CMCC 25922; test: Antibacterial MIC, serial dilution; format: cell-based; conditions: E. coli CMCC 25922, 24 h, 37 °C
Experimental: as §1, §2

[5] = system: Escherichia coli CMCC 44568; test: Antibacterial MIC, serial dilution; format: cell-based; conditions: E. coli CMCC 44568, 24 h, 37 °C
Experimental: as §1, §2

[6] = system: Pseudomonas aeruginosa CMCC 10104; test: Antibacterial MIC, serial dilution; format: cell-based; conditions: P. aeruginosa CMCC 10104, 24 h, 37 °C
Experimental: as §1, §2

[7] = system: Pseudomonas aeruginosa CMCC 27853; test: Antibacterial MIC, serial dilution; format: cell-based; conditions: P. aeruginosa CMCC 27853, 24 h, 37 °C
Experimental: as §1, §2

[8] = system: Staphylococcus aureus CMCC(B)26003; test: Antibacterial MIC, serial dilution; format: cell-based; conditions: S. aureus CMCC(B)26003, 24 h, 37 °C
Experimental: as §1, §2

[9] = system: Streptococcus mutans BNCC 336931; test: Antibacterial MIC, serial dilution; format: cell-based; conditions: S. mutans BNCC 336931, 24 h, 37 °C
Experimental: as §1, §2

[10] = system: Staphylococcus aureus ATCC 33591; test: Antibacterial MIC, multidrug-resistant clinical isolate; format: cell-based; conditions: multidrug-resistant S. aureus ATCC 33591
Experimental: as §1, §2

[11] = system: Staphylococcus aureus ATCC 43300; test: as above; format: cell-based; conditions: multidrug-resistant S. aureus ATCC 43300
Experimental: as §1, §2

[12] = system: A549; test: Cytotoxicity, CCK-8 assay; format: cell-based; conditions: Homo sapiens, A549 lung cancer cells, 48 h
Experimental: (§3) A lung cancer cell line (A549), gastric cancer cell line (SGC7901) and human hepatocytes (L02) were used to test the anticancer activity and cytotoxicity of the new compounds. 5-Fluorouracil (5-FU) was used as the positive control against cancer cell lines. The A549, SGC7901 and L02 cells were grown in Dulbecco’s modified Eagle’s medium (DMEM) supplemented with 10% foetal bovine serum (FBS) and antibiotics (100 U/mL penicillin-streptomycin). Cells at 80–90% confluence were split by trypsin (0.25% in PBS; pH 7.4), and the medium was changed at 24 h intervals. The cells were cultured at 37 °C in a 5% CO2 incubator. The cells were passaged three times, then approximately 1 × 10^4 cells were seeded into each well of a 96-well plate and allowed to incubate to allow attachment of the cells to the surface. After 24 h, the medium was replaced with DMEM supplemented with 10% FBS containing various concentrations (0.1, 0.3, 1, 3, 10, and 30 μg/mL) of test compounds. Each concentration was tested in triplicate. After 48 h treatment, 20 µL of CCK-8 solution was added to each well and the optical density measured at 450 nm after 3 h using a microplate reader. The IC50 values were defined as the concentrations inhibiting 50% of cell growth.

[13] = system: SGC7901; test: Cytotoxicity, CCK-8 assay; format: cell-based; conditions: Homo sapiens, SGC-7901, SGC7901 gastric cancer cells, 48 h
Experimental: as §3

[14] = system: L02; test: Cytotoxicity, CCK-8 assay, normal cell line; format: cell-based; conditions: L02 normal human hepatocytes, 48 h
Experimental: as §3

[15] = Staphylococcus aureus, CMCC25923, read-out: MIC
[16] = Bacillus subtilis, CMCC63501, read-out: MIC
[17] = Enterococcus faecalis, CMCC29212, read-out: MIC
[18] = Escherichia coli, CMCC25922, read-out: MIC
[19] = Escherichia coli, CMCC44568, read-out: MIC
[20] = Pseudomonas aeruginosa, CMCC10104, read-out: MIC
[21] = Pseudomonas aeruginosa, CMCC27853, read-out: MIC
[22] = Staphylococcus aureus, read-out: MIC
[23] = Streptococcus mutans, BNCC336931, read-out: MIC

Row | Compound | MIC [1, 15] [µg/mL] | MIC [2, 16] [µg/mL] | MIC [3, 17] [µg/mL] | MIC [4, 18] [µg/mL] | MIC [5, 19] [µg/mL] | MIC [6, 20] [µg/mL] | MIC [7, 21] [µg/mL] | MIC [8, 22] [µg/mL] | MIC [9, 23] [µg/mL] | melting point [°C] | other results
1 | Penicillin [reference compound] |  |  |  |  |  |  |  |  |  |  | MIC [1]: 0.125 µg/mL; MIC [2]: 128 µg/mL; MIC [3]: 128 µg/mL; MIC [4]: 128 µg/mL; MIC [5]: >128 µg/mL; MIC [6]: 32 µg/mL; MIC [7]: >128 µg/mL; MIC [8]: 0.125 µg/mL; MIC [9]: 0.125 µg/mL; MIC [10]: >32 µg/mL; MIC ([10]; listed as penicillin): > 32 µg/mL; MIC [11]: 32 µg/mL
2 | O=c1[nH]cc(F)c(=O)[nH]1 [5-Fluorouracil, reference compound] |  |  |  |  |  |  |  |  |  |  | IC50 [12]: 0.88 µg/mL (≈ 6.77 µM); IC50 [13]: 2.56 µg/mL (≈ 19.7 µM); IC50 [14]: 8.44 µg/mL (≈ 64.9 µM)
3 | N=C(N)NN=Cc1ccc(C#CC#Cc2cccc(Cl)c2)cc1 [Compound 6f, 2-(4-((3-Chlorophenyl)buta-1,3-diyn-1-yl)benzylidene)hydrazine-1-carboximidamide] | 8 (≈ 24.9 µM) | 4 (≈ 12.5 µM) | 0.5 (≈ 1.56 µM) | 4 (≈ 12.5 µM) | 32 (≈ 99.8 µM) | 16 (≈ 49.9 µM) | > 128 | 1 (≈ 3.12 µM) | 0.5 (≈ 1.56 µM) | 198 to 201 | 
4 | N=C(N)NN=Cc1ccc(C#Cc2ccccc2Br)cc1 [Compound 3h, 2-(4-((2-Bromophenyl)ethynyl)benzylidene)hydrazine-1-carboximidamide] | 1 (≈ 2.93 µM) | 2 (≈ 5.86 µM) | 1 (≈ 2.93 µM) | 4 (≈ 11.7 µM) | 4 (≈ 11.7 µM) | 8 (≈ 23.4 µM) | > 128 | 2 (≈ 5.86 µM) | 2 (≈ 5.86 µM) | 188 to 190 | 
5 | N=C(N)NN=Cc1ccc(C#Cc2ccc(F)cc2)cc1 [Compound 3d, 2-(4-((4-Fluorophenyl)ethynyl)benzylidene)hydrazine-1-carboximidamide] | 2 (≈ 7.14 µM) | 1 (≈ 3.57 µM) | 1 (≈ 3.57 µM) | 2 (≈ 7.14 µM) | 8 (≈ 28.5 µM) | 2 (≈ 7.14 µM) | 8 (≈ 28.5 µM) | 1 (≈ 3.57 µM) | 4 (≈ 14.3 µM) | 238 to 239 | MIC ([10]; Staphylococcus aureus, ATCC33591, read-out: MIC): 1 µg/mL (≈ 3.57 µM); MIC ([11]; Staphylococcus aureus, ATCC43300, read-out: MIC): 4 µg/mL (≈ 14.3 µM)
6 | N=C(N)NN=Cc1ccc(C#CC#Cc2ccc(Br)cc2)cc1 [Compound 6j, 2-(4-((4-Bromophenyl)buta-1,3-diyn-1-yl)benzylidene)hydrazine-1-carboximidamide] | > 128 | > 128 | 128 (≈ 350 µM) | > 128 | > 128 | > 128 | > 128 | 128 (≈ 350 µM) | > 128 | 227 to 230 | 
7 | N=C(N)NN=Cc1ccc(C#Cc2ccccc2)cc1 [Compound 3a, 2-(4-(Phenylethynyl)benzylidene)hydrazine-1-carboximidamide] | 4 (≈ 15.2 µM) | 2 (≈ 7.62 µM) | 1 (≈ 3.81 µM) | 4 (≈ 15.2 µM) | 4 (≈ 15.2 µM) | 4 (≈ 15.2 µM) | 16 (≈ 61 µM) | 1 (≈ 3.81 µM) | 4 (≈ 15.2 µM) | 225 to 226 | 
